Laboratory results reported in US10058582B2, “Therapeutic molecules and deviates for CRC” (ANTARTINA LLC, priority 2015, dated 2018).

Experiments:
CT26 CRC tumors = experiment: Subcutaneous CRC model; type: in vivo, BALB/c mice; settings: for microscopic examination of tumor sections (H & E): 10 and 15 days after treatment
Experimental: Subcutaneous CRC model: CT26 cells were injected at a dose of 5×10^5 cells subcutaneously (s.c.) into the right flank of BALB/c mice (day 0). Tumors were allowed to reach approximately 90 mm^3 in size before treatment was started. Animals were distributed in different groups and then treated with Antartina or 0.1% DMSO in sterile water intraperitoneal (i.p.) (control group, n=6); Antartina (5 or 50 mg/kg i.p., day 8, n=9). Tumor growth was assessed by caliper measurement.
tumor samples from experimental groups were obtained 10 and 15 days after treatment and fixed in 10% phosphate-buffered formalin. Five-micrometer sections from paraffin-embedded tissues were stained with hematoxylin and eosin (H & E) for histologic examination.

[1] = test system: CT26 cells injected into the liver; experiment: Liver metastatic CRC model; type: in vivo, BALB/c mice
Experimental: BALB/c mice received an intra-hepatic inoculation of 5×10^5 CT26 cells (day 0). The mice were distributed in experimental groups and treated with saline (control group, n=6); Antartina (5 mg/kg i.p., n=8 day 8). At day 18, animals were sacrificed and the volume of metastatic nodules was measured with caliper.

CT26 CRC cells = experiment: Long-term protection study (re-challenge); type: in vivo, BALB/c mice; settings: 3 weeks after complete tumor regression, 5×10^5 cells left flank
Text: to evaluate protective immunity, animals that were free of disease at 3 wk after complete regression of primary tumors (7 week after first tumor inoculation) were challenged with 5×10^5 CT26 cells on the left flank.

BNL cells = experiment: CTL cytotoxicity assay (LDH release), BNL targets; type: cell-based, mouse; settings: splenocytes of treated mice, in vitro
Experimental: (§1) viable splenocytes from control or treated mice (10×10^6) were stimulated in vitro with mitomycin C-treated CT26 cells (10×10^5 cells/well in 24-well-plates). On day 5, cells were harvested and washed, adjusted to 2×10^6/mL, and added to 96-well-plate (effector cells). To determine specific CTL cytotoxicity activity CT26 and BNL cells were used as target at 2×10^5/mL. After incubation for 4 h at 37° C., plates were centrifuged and cell-free supernatants were obtained. Levels of released LDH were evaluated with the LDH Cytotoxicity Detection Kit (Sigma-Aldrich) following the manufacturer's instructions and expressed as percentage of lysis.

[2] = test system: tumor-infiltrating CD4+ and CD8+ T cells; experiment: Flow cytometry of tumor-infiltrating T lymphocytes; type: in vivo, BALB/c mice; settings: day 18, p<0.05
Experimental: previously, single cell suspensions were obtained by mechanical disruption of tumor samples treated with 0.5 mg/ml Collagenase I at 37° C. for 45 min and washed with PBS 1% bovine serum albumin. Then, tumor cells were stained with PECy5-anti-CD4 (BD Biosciences) and AlexaFluor488-anti-CD8 (BD Biosciences) and their respective isotypes and subjected to flow cytometry (FACSAria, BD). Data were analyzed using Cyflogic v. 1.2.1 software.

CT26 cells [3] = experiment: Cell cycle analysis (propidium iodide, flow cytometry); type: cell-based, mouse; settings: 48 h and 72 h, Antartina 10 µg/ml
Experimental: 1×10^6 CT26 cells cultured with DMEM or Antartina were collected washed in PBS and fixed in a mixture of ice-cold 70% (v/v) ethanol, FBS and distill water. Fixed cells were centrifuged and stained with propidium iodide (PI) solution (50 μg/ml PI, 180 U/ml RNAse). DNA content was determined using a FACS Accuri 6 laser flow cytometer (Becton Dickinson).

CT26 cells [4] = experiment: Cell viability assay (MTS, 490 nm); type: cell-based, mouse
Experimental: Mouse CT26 tumor cell line, an undifferentiated murine colorectal carcinoma (CRC) cell line established from a N-nitroso-N-methylurethan-induced transplantable tumor in BALB/c (H-2d) mice and BNL hepatoma cell line was kindly provided by Prof. Jesús Prieto, University of Navarra, Spain. CT26 and BNL were cultured in complete DMEM (2 mM glutamine, 100 U/ml penicillin, […] streptomycin) and 10% heat-inactivated fetal bovine serum (FBS) and incubated at 37° C. in a 5% CO2 humidified atmosphere.
Antartina was dissolved in 0.1% DMSO and sterile water an injected intraperitoneally (i.p.) at the doses indicated or used for in vitro assays at different concentrations (0.1; 1 and 10 µg/ml). Fluorouracil Rontag® (5-Fu) 500 mg was diluted in saline solution at indicated concentrations (0.1; 1 and 10 µg/ml).
CT26 cells were plated onto 96-well plates at a density of 5×10^3 cells/well and cultured with DMEM or Antartina at different doses (0.1-1-10 […]at different doses (0.1-1-10 DMEM or y of 5×10t indicated concentrations (0.1; 1 and 10 nd 10 ions (0.1; 1 and 10 mental for 4 hour after which the absorbance of each well was read at 490 nm. All assays were performed in quadruplicate, and each assay was repeated twice.

Toxicity studies = type: in vivo, BALB/c mice
Experimental: BALB/c mice untreated or treated with Antartina (5 mg/kg and 50 mg/kg) were used to assess its toxicology profile. […] Aspartate aminotransferase (AST) and alanine aminotransferase (ALT) levels were measured by standard colorimetric methods. Also, healthy mice or mice receiving Antartina were sacrificed to collect liver, spleen, and kidney samples. Paraffin embedded tissues were stained with H & E for pathological analysis.

CT26 cells [5] = experiment: CTL cytotoxicity assay (LDH release), CT26 targets; type: cell-based, mouse; settings: splenocytes of treated cured mice, p<0.001
Experimental: as §1

hepatocellular carcinoma = experiment: Hepatocellular carcinoma in mice with advanced fibrosis (preliminary, data not shown); type: in vivo

For `COc1cc(-c2cc(=O)c3c(O)cc(O[C@@H]4O[C@H](CO)[C@@H](O)[C@H](O)[C@H]4O)cc3o2)cc(OC)c1O` [Antartina, Tricin 7-O-β-D-glucopyranoside], the “tumor growth vs saline control” value (CT26 CRC tumors; 5 mg/kg i.p., from day 8 three times a week, over 30 days) was “significant inhibition of tumor growth”, the “survival rate vs controls” value (CT26 CRC tumors; 5 mg/kg i.p., s.c. CT26 model) was “significantly increased” and the “complete tumor regression, percent of mice” value (CT26 CRC tumors; 50 mg/kg i.p.) was “more than 30%”. For the same compound, the tumor volume (CT26 CRC tumors; 50 mg/kg i.p. from day 8) was “potent tumor volume reduction”, the “complete tumor regression, mice of group” value (CT26 CRC tumors; 50 mg/kg i.p., n=9) was 3/9 and the “animal survival vs saline control” value (CT26 CRC tumors; 50 mg/kg i.p., p<0.01) was “significantly increased”. For the same compound, the “microscopic examination of tumor sections (H & E)” value (CT26 CRC tumors; 50 mg/kg i.p.) was “extensive areas of necrosis and marked mononuclear cells infiltration”, the “microscopic examination of tumor sections (H & E)” value (CT26 CRC tumors; 50 mg/kg i.p., listed as Antarina) was “intense mononuclear infiltrate and extensive areas of necrosis” and the “treated animals showing a reduction in metastases growth” value ([1]; 5 mg/kg i.p.) was “more than 60%”. For the same compound, the “mean of tumor volume” value ([1]; 5 mg/kg i.p. from day 8, day 18 after inoculation, control 1508±204) was 955±275 mm^3, the survival vs controls ([1]; 5 mg/kg i.p., liver metastatic model, p<0.01) was “superior” and the “re-challenge of cured animals with CT26 cells” value (CT26 CRC cells) was “rejected in all animals”. For the same compound, the “CTL activity against BNL cells” value (BNL cells) was “no CTL activity”, the “proportion of tumor-infiltrating CD4+ and CD8+ T cells vs control” value [2] was “increased proportion” and the cell cycle pattern (CT26 cells [3]) was “arrested at G2/M phase”. For the same compound, the cell cycle pattern (CT26 cells [3]; listed as Antarina) was “halted CT26 cells at the transition from G2 to M-phase”, the CT26 cell survival (CT26 cells [4]; 48 h, highest concentration, p<0.05) was “inhibits CT26 cell survival” and the “cell viability reduced to” value (CT26 cells [4]; 72 h, 10 µg/ml, p<0.001) was about 50%. The cell viability reduced (CT26 cells [4]; 72 h, 1 µg/ml, p<0.05) was “more than 20%”, the “H & E stained tissues (liver, spleen, kidney)” value (Toxicity studies; 5 mg/kg and 50 mg/kg) was “no signs of toxicity” and the “body weight gain in both groups” value (Toxicity studies; 5 and 50 mg/kg) was “similar”. For the same compound, the “general health of animals” value (Toxicity studies; 5 and 50 mg/kg) was “remained healthy”, the “tolerability, clinical and biochemical toxicity (AST, ALT)” value (Toxicity studies; 5 and 50 mg/kg, observed more than 30 days) was “well tolerated with no evident signs of clinical and biochemical toxicity” and the “specific CTL activity against CT26 cells” value (CT26 cells [5]) was “potent activation of specific cytotoxic T lymphocytes”. For the same compound, the “specific CTL activity against CT26 cells” value (CT26 cells [5]; listed as Antarina) was “potent CTL activity against CT26 cells” and the “antitumoral activity in vivo against hepatocellular carcinoma” value (hepatocellular carcinoma) was “antitumoral activity”.
